Results reported in patent US7041785B1, “B1-bradykinin receptor antagonists and use thereof” (Université de Sherbrooke, priority 1996, dated 2006).
Non-standard residues stand in square brackets, D forms with d. Residues, ends and D or L forms follow the SMILES beside them. d2Nal = N[C@H](Cc1ccc2ccccc2c1)C(=O)O; dTic = O=C(O)[C@H]1Cc2ccccc2CN1; NMeA = CN[C@@H](C)C(=O)O

Legend:
B1 receptor = target: T1, B1 receptor (Oryctolagus cuniculus, UniProt P48748); assay: cell-based; conditions: for Kb: Rb.A. pA2, apparent affinity as antagonist vs desArg9BK; for Rb.A. α^E: residual agonistic activity at 10 μg/mL in comparison with desArg9BK
T1 sequence (P48748 1-352): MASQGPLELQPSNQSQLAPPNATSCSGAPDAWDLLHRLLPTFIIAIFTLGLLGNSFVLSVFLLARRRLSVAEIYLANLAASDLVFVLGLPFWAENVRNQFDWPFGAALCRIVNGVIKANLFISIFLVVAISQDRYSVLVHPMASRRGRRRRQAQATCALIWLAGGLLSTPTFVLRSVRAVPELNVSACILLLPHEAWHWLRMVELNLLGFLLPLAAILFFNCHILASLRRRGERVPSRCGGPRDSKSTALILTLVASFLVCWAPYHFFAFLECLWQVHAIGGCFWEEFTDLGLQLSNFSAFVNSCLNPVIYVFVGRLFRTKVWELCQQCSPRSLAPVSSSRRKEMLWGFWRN
Text: (§1) Tissues were taken from New Zealand white rabbits (1.5–2.5 kg) and Dunken Hartley guinea pigs (250–350 g) of either sex, killed by stunning and exsanguination. Umbilical cords were taken from healthy women 22–40 years old after spontaneous delivery at term. The rabbit jugular vein (RbJV), the guinea pig ileum (GPI), two preparations containing B2 receptors, the rabbit aorta (RbA) (B1 receptor) and the human umbilical vein (HUV), a mixed preparation containing both B1 and B2 receptors^10, were used. Helical strips of RbJV treated with 1 μmol/L of captopril to avoid peptide degradation by the angiotensin-converting enzyme (ACE), alias kininase II were prepared according to Gaudreau et al.^11 Helical strips of RbA devoid of endothelium were prepared according to Furchgott and Bhadrakom^12. Longitudinal segments of GPI were prepared with the procedure described by Rang^13. Helical strips of HUV were prepared according to Gobeil et al.^10. The tissues were suspended in 10-ml organ baths containing warm (37EC), oxygenated (95% O2–5% CO2) Krebs solution of the following composition in mmol/L; NaCl: 118.1; KCl: 4.7; CaCl26H2O: 2.5; KH2PO4: 1.2; MgSO47H2O: 1.18; NaHCO3: 25.0 and D-Glucose: 5.5. The RbA and the HUV were stretched with an initial tension of 2 g, whereas the RbJV and the GPI were loaded with 0.5 g. Changes of tension produced by the various agents were measured with Grass isometric transducers (model FT 03C, Grass Instrument Co., Quincy, Mass.). […] Before testing the drugs, the tissues were allowed to equilibrate for 60–120 min during which time the tissues were repeatedly washed and the tension readjusted every 15 min.
(§2) At the beginning of each experiment, a submaximal dose of bradykinin (BK) (9 nmol/L), was applied repeatedly on the RbJV, the GPI or the HUV to ensure that tissues responded with stable contractions. […] A similar protocol was used for the HUV.
(§3) Repeated applications of a singl and double concentration of BK (on RbJV, GPI and HUV) and of desArg^9BK (RbA and HUV) were made in the absence and in presence of the various peptides to evaluate their apparent affinities as antagonists, in terms of pA2 (-log10 of the molar concentration of antagonist that reduces the effect of a double concentration of agonist to that of a single one)^14. The antagonists were applied 10 min before measuring the myotropic effects of either BK (the B2 receptor agonist) or desArg^9BK (the B1 receptor agonist). […] All kinin antagonists were initially applied to tissues at concentration of 10 μg/mL to measure their potential agonistic activities (α^E) in comparison with BK (in the B2 receptor preparations) or desArg^9BK (in the B1 receptor preparations).

B2 receptor [1] = target: T2, B2 receptor (Cavia porcellus, UniProt O70526); assay: cell-based; conditions: for G.P.I. pA2: vs BK, Inactive = no detectable antagonistic effect at ≦ 10 μg/ml, F.ag. full agonist, P.ag. partial agonist; for G.P.I. α^E: residual agonistic activity at 10 μg/mL in comparison with BK
T2 sequence (O70526 1-372): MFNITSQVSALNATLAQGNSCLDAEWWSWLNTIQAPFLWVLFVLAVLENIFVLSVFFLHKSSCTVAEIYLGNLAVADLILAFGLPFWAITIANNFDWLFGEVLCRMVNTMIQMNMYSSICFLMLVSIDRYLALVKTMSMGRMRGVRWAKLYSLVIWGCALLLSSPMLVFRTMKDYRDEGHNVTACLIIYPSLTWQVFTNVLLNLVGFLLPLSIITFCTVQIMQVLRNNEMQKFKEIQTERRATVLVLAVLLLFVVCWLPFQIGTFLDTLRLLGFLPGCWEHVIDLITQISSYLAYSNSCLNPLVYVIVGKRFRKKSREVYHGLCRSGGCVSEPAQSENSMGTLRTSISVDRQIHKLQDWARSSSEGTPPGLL
Text: as §1, §2, §3

[2] = test system: T3, angiotensin-converting enzyme (ACE); assay: Metabolic degradation by purified angiotensin-converting enzyme, HPLC analysis; type: in vitro ADME, rabbit; conditions: rabbit, isolated enzyme ace, pH 7.5
T3 construct: purified angiotensin-converting enzyme (ACE) from rabbit lungs; purchased Sigma, St-Louis, Mo; host or cells: purified from rabbit lungs
Description: The metabolic stability of various kinin-related peptides was evaluated by incubating the peptide in the presence of purified angiotensin-converting enzyme (ACE) from rabbit lungs (purchased from Sigma, St-Louis, Mo.) dissolved in phosphate buffered saline (PBS) (50 mmol/L, pH 7.5 containing 300 mmoL/L NaCl); the final concentration of enzyme was 45 μg/mL. The experimental protocol for the measurement of ACE activity has been described elsewhere^15,16. Briefly, 200 μmol/L of peptides (40 μL) were placed in a PBS buffer and incubated for 5 min at 37EC before adding 8.5 μL of ACE (total volume of the reaction medium; 190 μL). Samples were withdrawn at 30 min intervals, immersed in boiling water for 5 min, then cooled on ice and centrifuged (5 min) before proceeding to analysis of peptides by high pressure liquid chromatography (HPLC). Results of ACE metabolism are expressed in percent of kinin degradation following the incubation (30 min) of kinin substrates with the enzyme.
Pure peptides and metabolic products were analysed by reverse-phas HPLC on a C18 μBondapak column (4.6 mm×25 cm) (Waters) of 10-μm particle size. The peptides and their fragments were eluted at the rate of 2.0 mL/min. with a linear gradient ranging from 5 to 65% of acetonitrile/TFA 0.05%/water over 20 min. at room temperature. The elution positions of these peptides were determined by following the absorbance at 214 nm. For each assay, 50 μL of the reaction medium (treated or not with ACE) were extracted and injected into the column. Concentrations of the peaks products, different from the peaks of the peptide substrate, were estimated using a computer software program (Baseline 810; Waters) that controlled also all the chromatography operations. Isolated metabolites and substrates were collected and identified by Electrospray mass spectrometry (positive mode).

B2 receptor [3] = target: T4, B2 receptor (Oryctolagus cuniculus, UniProt Q28642); conditions: vs BK; captopril 1 μmol/L; Inactive = no detectable antagonistic effect at ≦ 10 μg/ml
T4 sequence (Q28642 1-367): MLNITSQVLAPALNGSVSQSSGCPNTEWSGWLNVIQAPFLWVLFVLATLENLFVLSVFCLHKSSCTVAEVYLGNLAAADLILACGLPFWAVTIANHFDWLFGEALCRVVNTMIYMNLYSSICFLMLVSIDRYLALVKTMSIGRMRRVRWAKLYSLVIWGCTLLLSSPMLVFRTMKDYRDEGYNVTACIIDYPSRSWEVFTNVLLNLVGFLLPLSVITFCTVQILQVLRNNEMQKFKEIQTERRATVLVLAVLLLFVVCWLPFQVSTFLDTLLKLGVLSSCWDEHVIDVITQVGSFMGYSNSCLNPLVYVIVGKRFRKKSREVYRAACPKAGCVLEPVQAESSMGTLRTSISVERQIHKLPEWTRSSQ

B2 receptor [4] = target: T4, B2 receptor; assay: cell-based; conditions: residual agonistic activity at 10 μg/mL in comparison with BK
Text: as §1, §2, §3

[5] = antagonist applied 10 min before, Inactive = no detectable antagonistic effect at ≦ 10 μg/ml

Compound | Kb (B1 receptor; [5]) [nM] | G.P.I. pA2 (B2 receptor [1]) | metabolised at 0.5 h, 42.1 μmol/L [2] [%] | Rb.J.V. pA2 (B2 receptor [3]) | Kb (B2 receptor [1]) [nM] | Rb.A. α^E (B1 receptor) | G.P.I. α^E (B2 receptor [1]) | Rb.J.V. α^E (B2 receptor [4]) | EC50 (B2 receptor [1]) [nM] | metabolised at 0.5 h [2] [%] | Rb.A. pA2 (B1 receptor; apparent affinity as antagonist vs desArg9BK, antagonist applied 10 min before, Inactive = no detectable antagonistic effect at ≦ 10 μg/ml)
CC(C)C[C@H](NC(=O)[C@@H]1CCCN1C(=O)[C@H](CO)NC(=O)[C@H](Cc1ccccc1)NC(=O)CNC(=O)[C@@H]1CCCN1C(=O)[C@@H]1CCCN1C(=O)[C@@H](N)CCCNC(=N)N)C(=O)O [Compound 1, (Leu^8)desArg^9BK, reference compound] | 57.5 | Inactive | 83 ± 2 | Inactive | – | – | – | – | – | – | –
CC(C)C[C@H](NC(=O)[C@@H]1CCCN1C(=O)[C@H](CO)NC(=O)[C@H](Cc1ccccc1)NC(=O)CNC(=O)[C@@H]1C[C@@H](O)CN1C(=O)[C@@H]1CCCN1C(=O)[C@H](CCCNC(=N)N)NC(=O)[C@@H](N)CCCCN)C(=O)O [Compound 3, Lys(Hyp^3, Leu^8)desArg^9BK] | 6.92 | Inactive | 40 ± 3 | Inactive | – | – | – | – | – | – | –
CC(C)C[C@H](NC(=O)[C@@H]1CCCN1C(=O)[C@H](CO)NC(=O)[C@H](Cc1ccccc1)NC(=O)CNC(=O)[C@@H]1C[C@@H](O)CN1C(=O)[C@@H]1CCCN1C(=O)[C@H](CCCNC(=N)N)NC(=O)[C@H](N)CCCNC(=N)N)C(=O)O [Compound 4, D-Arg(Hyp^3, Leu^8)desArg^9BK] | 339 | – | 83 ± 2 | Inactive | > 9550 | – | – | – | – | – | –
CC(=O)N[C@@H](CCCCN)C(=O)N[C@@H](CCCNC(=N)N)C(=O)N1CCC[C@H]1C(=O)N1C[C@H](O)C[C@H]1C(=O)NCC(=O)N[C@@H](Cc1ccccc1)C(=O)N[C@@H](CO)C(=O)N1CCC[C@H]1C(=O)N[C@@H](CC(C)C)C(=O)O [Compound 5, AcLys(Hyp^3, Leu^8)desArg^9BK] | 178 | – | 66 ± 1 | Inactive | > 9550 | 0 | 0.30 | 0.03 | – | – | –
CC(=O)N[C@@H](CCCCN)C(=O)N[C@@H](CCCNC(=N)N)C(=O)N1CCC[C@H]1C(=O)N1CCC[C@H]1C(=O)NCC(=O)N[C@@H](Cc1ccccc1)C(=O)N[C@@H](CO)C(=O)N1Cc2ccccc2C[C@@H]1C(=O)N[C@@H](CC(C)C)C(=O)O [Compound 11, AcLys(D-Tic^7, Leu^8)desArg^9BK] (Ac-KRPPGFS[dTic]L-OH; C-terminus assumed) | 6760 | – | – | Inactive | – | 0 | – | 0.37 | 1410 | 0 | –
CC(=O)N[C@@H](CCCCN)C(=O)N[C@@H](CCCNC(=N)N)C(=O)N1CCC[C@H]1C(=O)N1CCC[C@H]1C(=O)NCC(=O)N[C@@H](Cc1ccccc1)C(=O)N(C)[C@@H](C)C(=O)N1CCC[C@H]1C(=O)N[C@@H](CC(C)C)C(=O)O [Compound 21, AcLys(N-MeAla^6, Leu^8)desArg^9BK, reference compound] (Ac-KRPPGF[NMeA]PL-OH; C-terminus assumed) | 282 | Inactive | 0 | Inactive | – | 0.01 | 0.19 | 0 | – | – | –
CC[C@H](C)[C@H](NC(=O)[C@@H](Cc1ccc2ccccc2c1)NC(=O)[C@H](C)N(C)C(=O)[C@H](Cc1ccccc1)NC(=O)CNC(=O)[C@@H]1CCCN1C(=O)[C@@H]1CCCN1C(=O)[C@H](CCCNC(=N)N)NC(=O)[C@H](CCCCN)NC(C)=O)C(=O)O [Compound 22, AcLys(N-MeAla^6, D-βNal^7, IIe^8)desArg^9BK] (Ac-KRPPGF[NMeA][d2Nal]I-OH; C-terminus assumed) | 537 | P.ag. | 0 | Inactive | – | 0 | – | 0.03 | – | – | –
D-Arg(Hyp^3, D-Hyp^7(trans propyl), Oic^8)desArg^9BK [Compound 33, reference compound] | – | – | – | 6.99 ± 0.04 | – | 0 | 0 | 0 | – | – | 7.94 ± 0.06
